The text below walks through data of patent US8067590B2, “Pyridone derivates with MCH antagonistic activity and medicaments comprising these compounds” (Boehringer Ingelheim International GmbH, priority 2006, dated 2011).

Each structure is given as a SMILES string.

In one assay the target is T1, MCH-1R (Rattus norvegicus, UniProt P97639).
T1 sequence (P97639 whole entry): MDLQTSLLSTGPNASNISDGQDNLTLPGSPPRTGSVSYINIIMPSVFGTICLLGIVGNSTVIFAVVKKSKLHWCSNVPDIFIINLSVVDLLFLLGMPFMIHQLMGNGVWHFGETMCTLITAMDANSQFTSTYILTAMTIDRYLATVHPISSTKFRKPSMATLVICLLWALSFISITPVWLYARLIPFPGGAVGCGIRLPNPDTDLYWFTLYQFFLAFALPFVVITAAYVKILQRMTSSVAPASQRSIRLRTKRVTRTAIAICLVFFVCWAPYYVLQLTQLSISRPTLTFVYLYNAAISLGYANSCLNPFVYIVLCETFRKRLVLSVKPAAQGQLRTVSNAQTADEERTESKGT
Assay: not given
More on the design: host or cells: whole animals (in vivo). The following applies: animals treated with the antagonist; cited from earlier work.
Take `COCC1=C(C(=O)OC)[C@H](c2ccc(F)c(F)c2)N(C(=O)NCCCN2CCC(c3cccc(NC(C)=O)c3)CC2)C(=O)N1` [SNAP-7941]: the “body weight effect in long term trials” value was “lose significant amounts of weight”.

In another assay the target is T2, hMCH-1R (Homo sapiens, UniProt Q99705).
T2 construct: expressed in transfected cells; host or cells: CHO/Galpha16 cells (membranes)
T2 sequence (Q99705 whole entry): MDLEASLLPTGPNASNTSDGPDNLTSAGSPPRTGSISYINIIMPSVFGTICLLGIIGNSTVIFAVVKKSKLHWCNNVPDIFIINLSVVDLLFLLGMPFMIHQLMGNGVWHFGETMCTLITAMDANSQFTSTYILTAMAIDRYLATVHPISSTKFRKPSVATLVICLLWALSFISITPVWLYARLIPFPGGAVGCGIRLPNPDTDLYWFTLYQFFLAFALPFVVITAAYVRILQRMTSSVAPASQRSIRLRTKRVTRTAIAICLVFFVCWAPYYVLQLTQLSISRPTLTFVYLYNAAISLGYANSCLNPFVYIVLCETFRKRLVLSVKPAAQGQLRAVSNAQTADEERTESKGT
Nature of the assay: MCH-1 receptor binding test (125I-MCH binding to membranes of hMCH-1R transfected CHO/Galpha16 cells).
Conditions: not given
The protocol:
Membranes from CHO/Galpha16 cells stably transfected with human hMCH-1R are resuspended using a syringe (needle 0.6×25 mm) and diluted in test buffer (50 mM HEPES, 10 mM MgCl2, 2 mM EGTA, pH 7.00; 0.1% bovine serum albumin (protease-free), 0.021% bacitracin, 1 μg/ml aprotinin, 1 μg/ml leupeptin and 1 μM phosphoramidone) to a concentration of 5 to 15 μg/ml.
After the incubation the reaction is filtered using a cell harvester through 0.5% PEI treated fibreglass filters (GF/B, Unifilter Packard). The membranebound radioactivity retained on the filter is then determined after the addition of scintillator substance (Packard Microscint 20) in a measuring device (TopCount of Packard). The non-specific binding is defined as bound radioactivity in the presence of 1 micromolar MCH during the incubation period.
The analysis of the concentration binding curve is carried out on the assumption of one receptor binding site.
In the case of `O=C(Cn1cnc(OCc2ccccc2)cc1=O)c1ccc(CN2CCCCC2)cc1` [Example 34.3], the half-inhibitory concentration (IC50) – broadly, the point on the concentration scale where inhibition reaches its midpoint – turned out to be 16 nM.
As for `O=C(Cn1ncc(OCc2ccc(Cl)cn2)cc1=O)c1ccc(CN2CCCC2)cc1` [Example 33.8], the IC50 is 19 nM.
Turning to `O=C(Cn1ccc(OCc2ccccc2)cc1=O)c1ccc(CN2CCC(O)CC2)cc1` [Example 29.3, 4-Benzyloxy-1-{2-[4-(4-hydroxy-piperidin-1-ylmethyl)-phenyl]-2-oxo-ethyl}-1H-pyridin-2-one], the concentration for half-maximal inhibition (IC50) is 16 nM.
The compound `O=c1cc(OCc2ccccc2)cnn1CCc1ccc(CN2CCCC2)cc1` [Example 21.2] had an IC50 of 3 nM.
Take `CC1(O)CCN(Cc2ccc(C(=O)Cn3ccc(OCc4ccccc4)cc3=O)cc2)CC1` [Example 29.4]: the IC50 turned out to be 16 nM.
As for `O=C(Cn1ncc(OCc2ccccc2)cc1=O)c1ccc(CN2CCC(O)CC2)cc1` [Example 32.2], the half-inhibitory concentration (IC50) was 12 nM.
Still for that read-out and setting: then `O=c1cc(OCc2ccccc2)ccn1CCc1ccc2c(c1)CCNCC2` [Example 23.2, 4-Benzyloxy-1-[2-(2,3,4,5-tetrahydro-1H-3-benzazepin-7-yl)-ethyl]-1H-pyridin-2-one], with 7 nM; and `CN1CCc2cc(C(=O)Cn3ccc(OCc4ccccc4)cc3=O)ccc2C1` [Example 46.2, 4-Benzyloxy-1-[2-(2-methyl-1,2,3,4-tetrahydro-isoquinolin-6-yl)-2-oxo-ethyl]-1H-pyridin-2-one], with 21 nM.
In turn, `CC(c1ccc(C(=O)Cn2ncc(OCc3ccccc3)cc2=O)cc1)N1CCN(C)CC1` (centres unmarked) [Example 47.5] gave an IC50 of 27 nM.
Regarding `O=C(Cn1ccc(OCc2ccccc2)cc1=O)c1ccc(CN2CC[C@@H](O)C2)cc1` [Example 29.11], the IC50 was 14 nM.
As for `CN1CCN(Cc2ccc(C(=O)Cn3ncc(OCc4ccccc4)cc3=O)cc2)CC1` [Example 32.10], the half-inhibitory concentration (IC50) worked out at 23 nM.
The compound `O=c1cc(OCc2ccc(Br)cn2)ccn1CC(O)c1ccc2c(c1)CNCC2` (centres unmarked) [Example 39.1, 4-(5-Bromo-pyridin-2-ylmethoxy)-1-[2-hydroxy-2-(1,2,3,4-tetrahydro-isoquinolin-7-yl)-ethyl]-1H-pyridin-2-one] displayed an IC50 of 34 nM.
On to `O=C(Cn1ncc(OCc2ccccc2)cc1=O)c1ccc2c(c1)CNCC2` [Example 41.1, 5-Benzyloxy-2-[2-oxo-2-(1,2,3,4-tetrahydro-isoquinolin-7-yl)-ethyl]-2H-pyridazin-3-one], for which the 50% inhibitory concentration (IC50) came to 17 nM.
`O=C(Cn1ccc(OCc2ccccc2)cc1=O)c1ccc(CN2CC(O)C2)cc1` [Example 29.13] returned a half-maximal inhibitory concentration (IC50) of 18 nM.
The compound `O=c1cc(OCc2ccccc2)ccn1CCc1ccc(CN2CCCC2)s1` [Example 28.1, 4-Benzyloxy-1-[2-(5-pyrrolidin-1-ylmethyl-thiophen-2-yl)-ethyl]-1H-pyridin-2-one] displayed a half-inhibitory concentration (IC50) of 26 nM.
Same read-out and setting: then `CN1Cc2ccc(C(=O)Cn3ccc(OCc4ccccc4)cc3=O)cc2C1` [Example 37.2, 4-Benzyloxy-1-[2-(2-methyl-2,3-dihydro-1H-isoindol-5-yl)-2-oxo-ethyl]-1H-pyridin-2-one], with 33 nM; and `CC1(O)CCN(Cc2ccc(C(=O)Cn3ncc(OCc4ccccc4)cc3=O)cc2)CC1` [Example 32.3], with 9 nM; and `O=C(Cn1ncc(OCc2ccccc2)cc1=O)c1ccc(CNCC2CC2)cc1` [Example 32.8], with 6 nM.
Turning to `CN1CCc2sc(C(=O)Cn3ncc(OCc4ccccc4)cc3=O)cc2C1` [Example 44.2, 5-Benzyloxy-2-[2-(5-methyl-4,5,6,7-tetrahydro-thieno[3,2-c]pyridin-2-yl)-2-oxo-ethyl]-2H-pyridazin-3-one], the IC50 is 20 nM.
Compound `O=C(Cn1ccc(OCc2ccccc2)cc1=O)c1ccc2c(c1)CCN(C(=O)C(F)(F)F)CC2` [Example 22.1, 4-Benzyloxy-1-{2-oxo-2-[3-(2,2,2-trifluoro-acetyl)-2,3,4,5-tetrahydro-1H-3-benzazepin-7-yl]-ethyl}-1H-pyridin-2-one] had an IC50 of 51 nM.
Take `CC(=O)NC1CCN(Cc2ccc(CCn3ccc(OCc4ccsc4)cc3=O)cc2)CC1` [Example 4.2, N-[1-(4-{2-[2-Oxo-4-(thiophen-3-ylmethoxy)-2H-pyridin-1-yl]-ethyl}-benzyl)-piperidin-4-yl]-acetamide]: the half-maximal inhibitory concentration (IC50) is 8 nM.
Regarding `O=c1cc(OCc2ccco2)ccn1CCc1ccc(CN2CCCC2)cc1` [Example 6.1, 4-(Furan-2-ylmethoxy)-1-[2-(4-pyrrolidin-1-ylmethyl-phenyl)-ethyl]-1H-pyridin-2-one], the IC50 turned out to be 13 nM.
Regarding `O=c1cc(OCc2ccccc2)ccn1CCc1ccc2c(c1)CCNC2` [Example 27.2, 4-Benzyloxy-1-[2-(1,2,3,4-tetrahydro-isoquinolin-6-yl)-ethyl]-1H-pyridin-2-one], the IC50 was 8 nM.
Compound `CN1CCc2ccc(C(=O)Cn3ncc(OCc4ccccc4)cc3=O)cc2C1` [Example 42.1, 5-Benzyloxy-2-[2-(2-methyl-1,2,3,4-tetrahydro-isoquinolin-7-yl)-2-oxo-ethyl]-2H-pyridazin-3-one] came in with a half-inhibitory concentration (IC50) of 14 nM.

For a further assay, the target named is T1, MCH-1R.
Assay: not given
Further details: host or cells: rats (in vivo). The following applies: rats; cited from earlier work.
On to `COCC1=C(C(=O)OC)[C@H](c2ccc(F)c(F)c2)N(C(=O)NCCCN2CCC(c3cccc(NC(C)=O)c3)CC2)C(=O)N1` [SNAP-7941], for which the “effects in behavioural experiments” value is “anxiolytic and antidepressant effects”.
